Reference: PubChem BioAssay (NCI)
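All cell lines were grown in 96-well plates and treated with compound for 48 hours. TGI: total growth inhibition.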

What was measured:
Test in all cases: NCI-60 cell line screen, 48 h
SK-MEL-2 melanoma = test system: SK-MEL-2 melanoma
ACHN renal = test system: ACHN renal
SF-539 CNS = test system: SF-539 CNS
NCI/ADR-RES ovarian = test system: NCI/ADR-RES ovarian
CAKI-1 renal = test system: CAKI-1 renal
M14 melanoma = test system: M14 melanoma
UACC-257 melanoma = test system: UACC-257 melanoma
SNB-75 CNS = test system: SNB-75 CNS
K-562 leukemia = test system: K-562 leukemia
SK-MEL-28 melanoma = test system: SK-MEL-28 melanoma
HOP-62 NSCLC = test system: HOP-62 NSCLC
CCRF-CEM leukemia = test system: CCRF-CEM leukemia
OVCAR-5 ovarian = test system: OVCAR-5 ovarian
SK-OV-3 ovarian = test system: SK-OV-3 ovarian
LOX IMVI melanoma = test system: LOX IMVI melanoma
SR leukemia = test system: SR leukemia
DU-145 prostate = test system: DU-145 prostate
NCI-H226 lung = test system: NCI-H226 lung
UACC-62 melanoma = test system: UACC-62 melanoma
A549 NSCLC = test system: A549 NSCLC
HOP-92 NSCLC = test system: HOP-92 NSCLC
MDA-MB-231 breast = test system: MDA-MB-231 breast
RPMI-8226 leukemia = test system: RPMI-8226 leukemia
NCI-H460 lung = test system: NCI-H460 lung
COLO 205 colon = test system: COLO 205 colon
EKVX NSCLC = test system: EKVX NSCLC
MOLT-4 leukemia = test system: MOLT-4 leukemia
NCI-H522 lung = test system: NCI-H522 lung
SK-MEL-5 melanoma = test system: SK-MEL-5 melanoma
HS 578T breast = test system: HS 578T breast
T-47D breast = test system: T-47D breast
IGROV1 ovarian = test system: IGROV1 ovarian
MALME-3M melanoma = test system: MALME-3M melanoma
RXF 393 renal = test system: RXF 393 renal
HCT-15 colon = test system: HCT-15 colon
TK-10 renal = test system: TK-10 renal
NCI-H23 lung = test system: NCI-H23 lung
OVCAR-3 ovarian = test system: OVCAR-3 ovarian
MCF7 breast = test system: MCF7 breast
HT29 colon = test system: HT29 colon
SW-620 colon = test system: SW-620 colon
KM12 colon = test system: KM12 colon
PC-3 prostate = test system: PC-3 prostate
786-0 renal = test system: 786-0 renal
SF-268 CNS = test system: SF-268 CNS
U251 CNS = test system: U251 CNS
HL-60(TB) leukemia = test system: HL-60(TB) leukemia
HCC-2998 colon = test system: HCC-2998 colon
SNB-19 CNS = test system: SNB-19 CNS
OVCAR-8 ovarian = test system: OVCAR-8 ovarian
OVCAR-4 ovarian = test system: OVCAR-4 ovarian
SN12C renal = test system: SN12C renal
SF-295 CNS = test system: SF-295 CNS
MDA-MB-435 = test system: MDA-MB-435
HCT-116 colon = test system: HCT-116 colon
UO-31 renal = test system: UO-31 renal
A498 renal = test system: A498 renal
BT-549 breast = test system: BT-549 breast

Q: What does the source list for OCSc1nn(CO)c(=S)s1?
A: TGI (SK-MEL-2 melanoma): 45.2 µM; TGI (ACHN renal): 68.1 µM; TGI (SF-539 CNS): 56.8 µM; TGI (NCI/ADR-RES ovarian): 45.1 µM; TGI (CAKI-1 renal): > 100 µM; TGI (M14 melanoma): 38.2 µM; TGI (UACC-257 melanoma): 48.1 µM; TGI (SNB-75 CNS): 67.1 µM; TGI (K-562 leukemia): 43.4 µM; TGI (SK-MEL-28 melanoma): 49.9 µM; TGI (HOP-62 NSCLC): 45.2 µM; TGI (CCRF-CEM leukemia): 55.1 µM; TGI (OVCAR-5 ovarian): > 100 µM; TGI (SK-OV-3 ovarian): 92.7 µM; TGI (LOX IMVI melanoma): 40.7 µM; TGI (SR leukemia): 11.9 µM; TGI (DU-145 prostate): 57.6 µM; TGI (NCI-H226 lung): 92.9 µM; TGI (UACC-62 melanoma): 34.8 µM; TGI (A549 NSCLC): > 100 µM; TGI (HOP-92 NSCLC): 41.7 µM; TGI (MDA-MB-231 breast): 68.1 µM; TGI (RPMI-8226 leukemia): 70.6 µM; TGI (NCI-H460 lung): 54.5 µM; TGI (COLO 205 colon): 67.8 µM; TGI (EKVX NSCLC): 89.3 µM; TGI (MOLT-4 leukemia): 51.6 µM; TGI (NCI-H522 lung): 35.3 µM; TGI (SK-MEL-5 melanoma): > 100 µM; TGI (HS 578T breast): 42.4 µM; TGI (T-47D breast): 66.6 µM; TGI (IGROV1 ovarian): 47.8 µM; TGI (MALME-3M melanoma): 44.8 µM; TGI (RXF 393 renal): 34.3 µM; TGI (HCT-15 colon): 37.8 µM; TGI (TK-10 renal): > 100 µM; TGI (NCI-H23 lung): 40.5 µM; TGI (OVCAR-3 ovarian): 48.4 µM; TGI (MCF7 breast): 35.9 µM; TGI (HT29 colon): 75.3 µM; TGI (SW-620 colon): > 100 µM; TGI (KM12 colon): 40.4 µM; TGI (PC-3 prostate): 59.6 µM; TGI (786-0 renal): 58.9 µM; TGI (SF-268 CNS): 50.5 µM; TGI (U251 CNS): 56.8 µM; TGI (HL-60(TB) leukemia): 54 µM; TGI (HCC-2998 colon): 43.3 µM; TGI (SNB-19 CNS): 59.6 µM; TGI (OVCAR-8 ovarian): 32.8 µM; TGI (OVCAR-4 ovarian): 47 µM; TGI (SN12C renal): 49.4 µM; TGI (SF-295 CNS): 71.9 µM; TGI (MDA-MB-435): 34.3 µM; TGI (HCT-116 colon): 55.4 µM

Q: With CCNCCNC(=O)c1ccc(Br)cc1 as the molecule, how does the TGI (ACHN renal) read?
A: > 100 µM

Q: What about the TGI (SF-539 CNS) of the same molecule?
A: > 100 µM

Q: What about the TGI (NCI/ADR-RES ovarian) of the same molecule?
A: > 100 µM

Q: What about the TGI (CAKI-1 renal) of the same molecule?
A: > 100 µM

Q: What about the TGI (M14 melanoma) of the same molecule?
A: > 100 µM

Q: And the TGI (SNB-75 CNS)?
A: > 100 µM

Q: And the TGI (K-562 leukemia)?
A: > 100 µM

Q: And the TGI (SK-MEL-28 melanoma)?
A: > 100 µM

Q: And the TGI (CCRF-CEM leukemia)?
A: > 100 µM

Q: And the TGI (OVCAR-5 ovarian)?
A: > 100 µM

Q: What about the TGI (SK-OV-3 ovarian) of the same molecule?
A: > 100 µM

Q: What about the TGI (LOX IMVI melanoma) of the same molecule?
A: > 100 µM

Q: What about the TGI (SR leukemia) of the same molecule?
A: > 100 µM

Q: What about the TGI (NCI-H226 lung) of the same molecule?
A: > 100 µM

Q: And the TGI (UACC-62 melanoma)?
A: > 100 µM

Q: And the TGI (A549 NSCLC)?
A: > 100 µM

Q: And the TGI (HOP-92 NSCLC)?
A: > 100 µM

Q: What about the TGI (RPMI-8226 leukemia) of the same molecule?
A: > 100 µM

Q: What about the TGI (NCI-H460 lung) of the same molecule?
A: > 100 µM

Q: What about the TGI (EKVX NSCLC) of the same molecule?
A: > 100 µM

Q: What about the TGI (MOLT-4 leukemia) of the same molecule?
A: > 100 µM

Q: And the TGI (UO-31 renal)?
A: > 100 µM

Q: And the TGI (SK-MEL-5 melanoma)?
A: > 100 µM

Q: What about the TGI (HS 578T breast) of the same molecule?
A: > 100 µM

Q: What about the TGI (IGROV1 ovarian) of the same molecule?
A: > 100 µM

Q: And the TGI (RXF 393 renal)?
A: > 100 µM

Q: What about the TGI (A498 renal) of the same molecule?
A: > 100 µM

Q: What about the TGI (HCT-15 colon) of the same molecule?
A: > 100 µM

Q: What about the TGI (TK-10 renal) of the same molecule?
A: > 100 µM

Q: And the TGI (NCI-H23 lung)?
A: > 100 µM

Q: What about the TGI (OVCAR-3 ovarian) of the same molecule?
A: > 100 µM

Q: What about the TGI (MCF7 breast) of the same molecule?
A: > 100 µM

Q: And the TGI (HT29 colon)?
A: > 100 µM

Q: What about the TGI (SW-620 colon) of the same molecule?
A: > 100 µM

Q: And the TGI (KM12 colon)?
A: > 100 µM

Q: What about the TGI (PC-3 prostate) of the same molecule?
A: > 100 µM

Q: What about the TGI (786-0 renal) of the same molecule?
A: > 100 µM

Q: What about the TGI (SF-268 CNS) of the same molecule?
A: > 100 µM

Q: And the TGI (BT-549 breast)?
A: > 100 µM

Q: What about the TGI (U251 CNS) of the same molecule?
A: > 100 µM

Q: And the TGI (HL-60(TB) leukemia)?
A: > 100 µM

Q: And the TGI (HCC-2998 colon)?
A: > 100 µM

Q: What about the TGI (SNB-19 CNS) of the same molecule?
A: > 100 µM

Q: And the TGI (OVCAR-8 ovarian)?
A: > 100 µM

Q: What about the TGI (OVCAR-4 ovarian) of the same molecule?
A: > 100 µM

Q: And the TGI (SN12C renal)?
A: > 100 µM
